Assay [1] has as its system A549 cells. Description: GSH levels and glutathione- and oxidative stress-related enzyme activities in A549 cells growing in vivo. The arrangement: species or system human. The note with it: A549, in vivo Pter, day 35. How it is done: To measure enzyme activity, isolated tumor cells were homogenized in 0.1 M phosphate buffer (pH 7.2) at 4° C. GCL and GSS activities were measured as described previously (Obrador, E. et al. Hepatology 35, 74-81 (2002)). GPX (selenium dependent) activity was measured as described by Flohé and Gunzler (Flohe, L. & Gunzler, W. A. Methods Enzymol 105, 114-121 (1984)) using H2O2 as a substrate. GSR activity was determined as described by Akerboom and Sies (Akerboom, T. P. et al, Bull Eur Physiopathol Respir 17 Suppl, 221-227 (1981)). GGT activity was measured as described previously (Obrador, E. et al. Hepatology 35, 74-81 (2002)). GST activity was measured using an assay kit from Sigma. TXNRD activity, defined by the concentration of sodium-lipoate (disulfide) reduced to dehydrolipoate (dithiol) per milligram protein, was measured as previously described (Javvadi, P. et al. Cancer Res 70, 1941-1950 (2010)). SOD activity was measured as described by Flohé and Otting (Flohe, L. & Otting, F. Methods Enzymol 105, 93-104 (1984).) using 2 mM cyanide in the assay medium to distinguish mangano-type enzyme (SOD2) from the cuprozinc type (SOD1). CAT activity was analyzed as described by Aebi (Aebi, H. Methods Enzymol 105, 121-126 (1984)). NOX activity was measured by chemiluminescence following the methodology of Wind et al. (Wind, S. et al. Comparative pharmacology of chemically distinct NADPH oxidase inhibitors. Br J Pharmacol 161, 885-898 (2010)). Protein concentration was determined with the Pierce BCA protein assay (Fisher Scientific, Waltham, Mass.).
GSH, GSSG, NADP^+ and NADPH Determination.
GSH and GSSG were determined, following procedures previously described (Obrador, E. et al. PLoS One 9, e96466 (2014)), by LC/MS using the same equipment described above for pterostilbene determination. Cell processing was performed according to published methodology, where rapid N-ethylmaleimide derivatization was used to prevent GSH auto-oxidation (Asensi, M. et al. Anal Biochem 217, 323-328 (1994)). NADP^+ and NADPH were quantitated using an assay kit from Sigma (St. Louis, Mo.).
Isolation of Tumor Cells from Mouse Xenografts Using Enzymatic Digestion and a double Ficoll gradient.
To maximize the amount of isolated cells, avoiding the use of RFP-transfected cells and subsequent laser microdissection, an alternative methodology was set up. To maximize cell yield and viability the following combination of enzymes was used: collagenase III (200 U/ml; Sigma-Aldrich), DNase I (200 U/ml; Sigma-Aldrich) and trypsin (5 mg/ml; Invitrogen), and a non-enzymatic dissociation buffer (NEDB, Invitrogen). Briefly, mice were killed, and tumors were removed (avoiding skin, muscle and fat) into cold culture media and processed immediately. The tumors were minced into 1-3 mm fragments, which were then incubated with the dissociation solution (see above) for 30 min at 37° C. The tumor fragments were mixed up and down every 10 min using a […] micropipette with a tip cut to a diameter adapted to tissue fragment size. After each incubation period, the fragments were filtered through a […] nylon mesh cell strainer (BD Biosciences, San Diego, Calif., USA). The released cells were centrifuged at 1200 r.p.m. for 2 min and stored in cold CO2-independent medium with 30% FCS at […]. Fresh dissociation solution was added to the remaining tissue fragments for 30 min. Dissociation was stopped when no additional cells were released. The fragments were pushed through a sieve and all cells from all incubation periods were pooled and counted.
The dissociated cells were layered onto a double Ficoll gradient (Histopaque; Sigma-Aldrich; densities 1.077 and 1.119) and spun at 700 g for 30 min at room temperature. Cells removed from both interfaces were pooled and washed two times in CO2-independent medium and stored at 4° C. Debris and red blood cell elimination was improved with the dual-density gradient. […]

Assay [2] concerns NORA. Description: Plasma NORA levels (ELISA) in melanoma-bearing mice. Type of assay: in vivo. The note with it: melanoma-bearing mice treated vs not treated with Pter. An excerpt: Measurement of ACTH, Corticosterone, and NORA Levels.
Plasma levels of ACTH (Calbiotech, Inc., Spring Valley, Calif.), corticosterone (Kamiyama Biomedical Co., Seattle, Wash.), and NORA (IBL, Hamburg, Germany) were quantified by ELISA according to the instructions of the suppliers.

Regarding `COc1cc(/C=C/c2ccc(O)cc2)cc(OC)c1` [Pter, trans-3,5-dimethoxy-4′-hydroxystilbene], in assay [1], the CAT is given as 0.3 ± 0.01 mU/10^6 cells, the GCL was determined as 39 ± 16 mU/10^6 cells, the GSH is 4.7 ± 1.5 nmol/10^6 cells and the GSS was found to be 3.9 ± 1.0 mU/10^6 cells. For the same molecule, in assay [1], the GSSG came out at 0.2 ± 0.07 nmol/10^6 cells, the SOD1 came out at 0.5 ± 0.1 U/10^6 cells and the SOD2 came to 0.04 ± 0.01 U/10^6 cells. Further, in assay [2], the “NORA levels in plasma” value was “not significantly different”.

The values above are taken from US11179348B2, “Combination comprising pterostilbene for the treatment of cancer” (FUNDACIÓN UNIVERSIDAD CATÓLICA DE VALENCIA SAN VICENTE …, priority 2015, dated 2021).
